Laboratory results published in PMC3199867, “Targeting surface nucleolin with multivalent HB-19 and related Nucant pseudopeptides results in distinct inhibitory mechanisms depending on the malignant tumor cell type” (BMC Cancer, 2011).

What was measured:
[1] = molecular target: nucleolin (cell-surface expressed nucleolin), human (human (endogenous in HeLa, CEM, MDA-MB-231, HuT 78 and other human cell lines)) (UniProt P19338)
T29 [2] = assay: Cell growth / multiplication (viable cell number); format: cell-based, murine; conditions: for multiplication index of cells at day 3 compared to day 0: T29 seeded at 150,000 cells/ml, 20 μM (pentavalent), triplicate, control 17.5-fold
Experimental: (§1) Human breast (MDA-MB-231, MDA-MB-435 [37]), prostate (LNCaP, from American Type Culture Collection, ATCC, Rockville, MD), and cervical (HeLa) epithelial cancer cells were grown in DMEM-glutamax medium (Gibco Invitrogen, Cergy-Pontoise, France) containing GlutaMAX™, 4.5 g/l glucose and supplemented with 10% heat-inactivated (56°C for 30 min) fetal bovine serum (FBS; Hyclone, Thermo Fisher Scientific, Inc). Human SW480 cells are derived from a grade 3-4 colon carcinoma, while the highly metastatic counterpart SW620 is established from the lymph node of a person. Both SW480 and SW620 cells (obtained from Francis Raul, IRCAD) are highly tumorigenic in nude mice. They were cultured in D-MEM, 10% FCS. The murine melanoma TIII cell line was obtained from Armelle Prévost-Blondel. Murine T29 lymphoma cells, obtained from Philippe Kastner (CNRS, Strasbourg), have been established from Ik^L/L tumors from mice carrying a hypomorphic mutation (Ik^L/L) in the Ikaros gene encoding a transcription factor that regulates lymphocyte differentiation, and acts also as a tumor suppressor in T lymphocytes. The T29 cells were cultured in RPMI medium containing 25 mM Hepes pH 7.6, 1 mM sodium pyruvate, and 10% FCS. Human leukemia cell lines, Jurkat (acute T cell leukemia), HuT 78 (cutaneous T lymphocyte), RAJI (Burkitt lymphoma), and HL60 (promyelocytic leukemia) were cultured in RPMI-1640 medium (Gibco) containing GlutaMAX™, and supplemented with 10% heat-inactivated FBS as described before. The wild-type Chinese hamster ovary cell line (CHO K1) was purchased from American Type Culture Collection (ATCC; Rockville, MD). The CHO LRP1-null cell line (CHO-13-5-1) was kindly provided by D. Strickland [47]. They were cultured in Ham's F12K medium. All cells were cultured with 10% (v/v) heat inactivated (56°C, 30 min) fetal bovine serum (FBS) (Roche Molecular Biochemicals, Indianapolis, IN) and 50 international units/mL penicillin-streptomycin (Invitrogen). Cell death was monitored conveniently by uptake of the trypan blue dye due to plasma membrane permeability of dying and/or dead cells.
Figure 7 HB-19 and related multivalent Nucant pseudopeptides induce cell death associated with internucleosomal DNA fragmentation. A. Inhibition of cell multiplication by HB-19 and related multivalent Nucant pseudopeptides. […] Cell cultures (in triplicate) were monitored for viable cell number daily for 3 days. The histograms show the mean number of cells/ml ± SD of triplicate samples. The multiplication index of cells at day 3 compared to day 0 (the day of seeding) is given at the top of histogram. At 3 days post passage of T29 cells, the cell multiplication index of cells is 17.5-fold compared to 8.9-, 7.2-, 2.2-, and 1.7-fold in the presence of treatment with HB-19, N3, N6, and N7, respectively. B. N7 inhibits T29 cell multiplication in a dose dependent manner. T29 cells seeded at 100,000/ml in 2 ml in the absence (0 μM) or presence of N7 at various concentrations 2.5, 5, 10 and 20 μM were cultured for 3 days and the number of viable cells was determined at day 1, 2, and 3 post-seeding. The ordinate gives the cell number/ml (the mean of 2 samples) in each culture at day 1, 2, and 3 post-seeding. C. Partial cleavage of surface/cytoplasmic nucleolin. T29 cells were cultured for 45 min with 0 (for control; lanes C), 2 and 10 μM of N6 before preparation of cytoplasmic (that contains both surface and cytoplasmic nucleolin) and nuclear extract and analysis by immunoblotting using rabbit polyclonal antibodies that are directed against the first 26 (panel anti-Nt Ab) and the last 16 amino acids (panel anti-Ct Ab) of human nucleolin, respectively. The nuclear extracts were analyzed by immunoblotting using anti-Nt Ab (Methods). […]

melanoma TIII cell = assay: Cell adhesion; format: cell-based, murine; conditions: after 5 hours of cell seeding, vs untreated control, mean of at least 2 independent experiments
T29 [3] = assay: Cell death (trypan blue uptake); format: cell-based, murine; conditions: T29 cells, 0-20 μM, read-out: Cell death: IC50 24 hours post-passage
Experimental: as §1

TIII = assay: Cell growth / proliferation (viable cell number); format: cell-based, murine; conditions: after 3 days of culture, vs untreated control, mean of at least 2 independent experiments
Experimental: as §1

IL-6 = IL-6 production by PBMC stimulated with heat-killed Staphylococcus aureus, ELISA; format: cell-based; conditions: Homo sapiens, PBMC + HKSA 10^8 particles/ml, 1 μg/ml, 20 hours post-stimulation, triplicate, read-out: degree of inhibition of IL-6 production
Experimental: (§2) Peripheral blood mononuclear cells (PBMC) from healthy donors were prepared by Ficoll-Hypaque density gradient centrifugation and suspended in RPMI 1640 medium containing 1% (v/v) of human serum AB (from Invitrogen). PBMC (10^6 cells/0.5 ml) in the absence or presence of 10 μM of each of HB-19, N3, N6, and N7, or 1 μg/ml of dexamethasone (Sigma) were stimulated with 10^8 particles/ml of Heat-killed Staphylococcus aureus (HKSA; InvivoGen, San Diego, USA). The cultures were incubated at 37°C in a 5% CO2 incubator, and the level of TNF-α and IL-6 was monitored in the culture supernatants by ELISA (R & D Systems) at 20 hours post-stimulation.
(§3) Figure 3 HB-19 and related Nucant pseudopeptides inhibit the production of TNF-α and IL-6 by peripheral blood lymphocytes. The production of pro-inflammatory cytokines in PBMC cultures stimulated with HKSA was carried out in triplicate in the absence (Control) or presence of 10 μM of each of HB-19, N3, N6, N7, N6L, or 1 μg/ml of dexamethasone (Dex.)(Methods). The level of TNF-α (section A) and IL-6 (section B) was monitored in culture supernatants by ELISA. The data presents the mean ± SD of triplicate samples. The degree of inhibition is indicated at the top of each histogram. Statistical significance: **p < 0.01, ***p < 0.001. […]

TNF-α = TNF-α production by PBMC stimulated with heat-killed Staphylococcus aureus, ELISA; format: cell-based; conditions: Homo sapiens, PBMC + HKSA 10^8 particles/ml, 1 μg/ml, 20 hours post-stimulation, triplicate, read-out: degree of inhibition of TNF-α production
Experimental: as §2, §3

[4] = tested on: human breast tumor cell xenografts; conditions: nude mice; cited from earlier work
Description: (§4) The importance of cell-surface nucleolin in cancer biology was recently highlighted by studies showing that ligands of nucleolin play critical role in tumorigenesis and angiogenesis. Accordingly, we recently reported that both of these events are suppressed by targeting surface nucleolin with the HB-19 pseudopeptide, a potent antagonist that forms an irreversible complex with surface nucleolin [9, 37]. By binding to the RGG domain of nucleolin, HB-19 prevents binding of growth factors to cells, triggers calcium entry into cells, inhibits MAP kinase activation, and down-regu ...

spontaneous melanoma = conditions: RET mice, treatment for several months; cited from earlier work
Description: as §4

CHO K1 cells = assay: Midkine (MK) internalization, confocal immunofluorescence; format: cell-based, Chinese hamster; conditions: CHO K1, pretreatment 5 μM 30 min at 20°C, then MK 0.2 μM 90 min at 37°C
Experimental: (§5) CHO K1 and CHO 13 cells (as in the Additional file 2, Figure 3S) were incubated with 0.2 µM Midkine (MK) for 90 min at 37°C or at 20°C before fixation with PFA. In sections C and E, cells were first incubated (30 min at 20°C) with 5 µM HB-19 before addition of MK (0.2 µM) and further incubation at 37°C for 90 min. […] Experimental conditions for confocal immunofluorescence microscopy were as described previously.

[5] = tested on: CHO 13 cells (LRP-1 null); assay: as above; format: cell-based, Chinese hamster; conditions: CHO 13 (LRP-1 null), pretreatment 5 μM 30 min at 20°C, then MK 0.2 μM 90 min at 37°C
Experimental: as §5

Sequence of nucleolin (cell-surface expressed nucleolin), human (human (endogenous in HeLa, CEM, MDA-MB-231, HuT 78 and other human cell lines)) (P19338 whole entry): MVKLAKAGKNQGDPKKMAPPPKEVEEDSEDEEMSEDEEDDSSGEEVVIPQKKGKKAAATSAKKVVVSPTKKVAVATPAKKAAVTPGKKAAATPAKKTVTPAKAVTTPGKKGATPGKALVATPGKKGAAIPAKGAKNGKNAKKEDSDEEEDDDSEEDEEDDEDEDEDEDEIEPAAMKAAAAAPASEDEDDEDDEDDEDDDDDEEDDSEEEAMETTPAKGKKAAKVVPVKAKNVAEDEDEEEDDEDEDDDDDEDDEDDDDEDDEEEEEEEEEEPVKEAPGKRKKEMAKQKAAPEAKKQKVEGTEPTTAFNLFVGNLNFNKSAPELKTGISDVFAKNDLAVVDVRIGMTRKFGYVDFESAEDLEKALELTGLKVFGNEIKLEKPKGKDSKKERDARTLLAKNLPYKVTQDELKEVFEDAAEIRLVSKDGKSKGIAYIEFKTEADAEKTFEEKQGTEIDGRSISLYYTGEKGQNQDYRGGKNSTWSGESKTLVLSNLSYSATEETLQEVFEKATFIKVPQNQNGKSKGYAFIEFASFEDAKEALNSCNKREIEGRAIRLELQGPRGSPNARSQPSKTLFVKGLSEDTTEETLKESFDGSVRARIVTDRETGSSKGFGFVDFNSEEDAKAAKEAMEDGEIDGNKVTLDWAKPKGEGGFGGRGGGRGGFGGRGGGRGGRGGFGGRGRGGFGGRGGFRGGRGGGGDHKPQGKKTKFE

## Nucant 6L pseudopeptide
[1]
  inhibition of HIV-1 LAI entry into HeLa CD4+ (LTR-LacZ) cells, β-galactosidase activity at 48 h, 0.05-0.8 μM; activity against the pentavalent N3 and HB-19: > 4 fold

## Nucant 6 pseudopeptide
[1]
  inhibition of HIV-1 LAI entry into HeLa CD4+ (LTR-LacZ) cells, β-galactosidase activity at 48 h, 0.1-0.8 μM; activity against the pentavalent N3 and HB-19: > 2 fold

## Ac-Lys-Aib-Gly-Lys-Aib-Gly-Lys-Aib-Gly-Lys-Aib-Gly-Lys-Aib-Gly-CONH2 [Nucant N3, Presents pentavalently the pseudo-tripeptide Lysψ(CH2N)-Pro-Arg coupled to the polypeptide template containing Aib]
T29 [2]
  multiplication index of cells at day 3 compared to day 0: 7.2 fold
Melanoma TIII cell; 5 μM
  % Inhibition of cell Adhesion: No effect
Melanoma TIII cell; 10 μM
  % Inhibition of cell Adhesion: 15%
Melanoma TIII cell; 20 μM
  % Inhibition of cell Adhesion: 24%
T29 [3]
  IC50: > 20 µM
TIII; 5 μM
  % Inhibition of cell Proliferation: No effect
TIII; 10 μM
  % Inhibition of cell Proliferation: 10%
TIII; 20 μM
  % Inhibition of cell Proliferation: 36%

## C[C@@H]1C[C@H]2[C@@H]3CCC4=CC(=O)C=C[C@]4(C)[C@@]3(F)[C@@H](O)C[C@]2(C)[C@@]1(O)C(=O)CO [Dex., dexamethasone]
IL-6
  inhibition at 1 µg/mL: 62%
TNF-α
  inhibition at 1 µg/mL: 61%

## Nucant 7 pseudopeptide
[1]
  inhibition of HIV-1 LAI entry into HeLa CD4+ (LTR-LacZ) cells, β-galactosidase activity at 48 h, 0.1-0.8 μM; activity against the pentavalent N3 and HB-19: > 2 fold

## H2NLys-Lys-Lys-Gly-Pro-Lys-Glu-Lys-AhxCONH2 [HB-19, Surface nucleolin antagonist pseudopeptide presenting pentavalently the pseudo-tripeptide Lysψ(CH2N)-Pro-Arg coupled to a peptide template]
T29 [2]; T29 cells, 0-20 μM, number of viable cells at 3 days post-treatment, read-out: Cell number: IC50 72 hours post-passage
  IC50: 20 µM
T29 [2]
  multiplication index of cells at day 3 compared to day 0: 8.9 fold
T29 [3]
  IC50: > 20 µM
[4]
  progression of established human breast tumor cell xenografts: markedly suppresses the progression
Spontaneous melanoma
  onset and frequency of spontaneous melanoma: delays significantly
  toxicity to normal tissue: no toxicity
CHO K1 cells
  MK entry: prevents MK entry
[5]
  MK entry: not affected
